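Values below derive from 48-hour exposures of cells grown in 96-well plates, with endpoints linearly interpolated between the two concentrations bracketing the appropriate inhibition level. GI50 = concentration required for 50% inhibition of growth. The concentration for full growth arrest is given as TGI.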
Columns and labels:
Assay in all cases: growth of human tumour cells (NCI), 48 h
ACHN renal = tested on: ACHN renal
T-47D breast = tested on: T-47D breast
NCI/ADR-RES ovarian = tested on: NCI/ADR-RES ovarian
NCI-H226 lung = tested on: NCI-H226 lung
HCT-15 colon = tested on: HCT-15 colon
BT-549 breast = tested on: BT-549 breast
HCT-116 colon = tested on: HCT-116 colon
OVCAR-8 ovarian = tested on: OVCAR-8 ovarian
KM12 colon = tested on: KM12 colon
HCC-2998 colon = tested on: HCC-2998 colon

SMILES	GI50 (ACHN renal)	TGI (ACHN renal)	GI50 (T-47D breast)	TGI (T-47D breast)	GI50 (NCI/ADR-RES ovarian)	TGI (NCI/ADR-RES ovarian)	GI50 (NCI-H226 lung)	TGI (NCI-H226 lung)	GI50 (HCT-15 colon)	TGI (HCT-15 colon)	GI50 (BT-549 breast)	TGI (BT-549 breast)	GI50 (HCT-116 colon)	TGI (HCT-116 colon)	GI50 (OVCAR-8 ovarian)	TGI (OVCAR-8 ovarian)	GI50 (KM12 colon)	TGI (KM12 colon)	GI50 (HCC-2998 colon)	TGI (HCC-2998 colon)
C#Cc1cccc(NC(=O)c2cccc(NC(=O)CCl)c2)c1	15.2 µM	42.9 µM	30.2 µM	> 82.5 µM	17.3 µM	53.1 µM	19.8 µM	59.4 µM	5.2 µM	19.1 µM	17.8 µM	70.4 µM	7.98 µM	44.6 µM	17.5 µM	> 82.5 µM	17.4 µM	60.6 µM	29.8 µM	> 82.5 µM
Cc1c[nH]c(=O)n(Cc2nnc(CCC(=O)c3nc4ccccc4[nH]3)o2)c1=O	7.56 µM	> 100 µM	1.03 µM	> 100 µM	14.7 µM	63.8 µM	3.48 µM	> 100 µM	8.93 µM	> 100 µM	0.717 µM	48.7 µM	0.251 µM	> 89.8 µM	0.661 µM	> 100 µM	0.414 µM	> 33.1 µM	0.421 µM	7.14 µM
O=C(Nc1cccc(C(F)(F)F)c1)c1ccc(NC2=C(Cl)C(=O)N(Cc3ccccc3)C2=O)cc1	15.3 µM	29.5 µM	12.4 µM	52.7 µM	10.8 µM	25.4 µM	16 µM	35.8 µM	4.41 µM	18.9 µM	1.25 µM	5.49 µM	2.81 µM	9.22 µM	38.4 µM	> 100 µM	10.5 µM	24.8 µM	1.29 µM	2.85 µM
O=C(c1ccccc1)C1OC1C(=O)c1ccccc1 (centres undefined)	3.67 µM	15.7 µM	3.51 µM	> 100 µM	1.88 µM	> 100 µM	5.24 µM	> 100 µM	2.61 µM	12.2 µM	3.28 µM	14.2 µM	2.09 µM	11.4 µM	4.02 µM	> 100 µM	3.51 µM	11.9 µM	2.94 µM	10.3 µM
COc1ccc(-c2cc(-c3ccc(OC)cc3)nc(NCCCNc3ccnc4cc(Cl)ccc34)n2)cc1	1.82 µM	3.22 µM	1.66 µM	3.9 µM	1.62 µM	3.28 µM	11.3 µM	28.2 µM	1.68 µM	3.45 µM	13.1 µM	27.8 µM	1.45 µM	2.76 µM	1.81 µM	3.57 µM	1.78 µM	3.28 µM	1.73 µM	3.2 µM
CCn1c(SCC(=O)Nc2cc(C(F)(F)F)ccc2Cl)nc2ccccc2c1=O	22.6 µM	> 100 µM	25.2 µM	> 100 µM	32.8 µM	> 100 µM	29.9 µM	> 100 µM	8.46 µM	> 100 µM	35 µM	> 100 µM	17.4 µM	> 100 µM	32.2 µM	> 100 µM	> 100 µM	> 100 µM	> 100 µM	> 100 µM
CCN(CC)CCCNc1n[n+]([O-])c2ccccc2[n+]1[O-]		53.1 µM		68.1 µM		> 100 µM		85.6 µM		31.5 µM		> 100 µM		57.3 µM		29.3 µM		63 µM		15.7 µM
FC(F)(F)c1nc(SCc2ccc(Cl)cc2)n[nH]1		> 100 µM		> 100 µM		> 100 µM		> 100 µM		> 100 µM		> 100 µM		> 100 µM		> 100 µM		> 100 µM		> 100 µM
COc1ccc(CNCCCN2C(=O)c3ccc4c5c(ccc(c35)C2=O)C(=O)N(CCCNCc2ccc(OC)c(OC)c2OC)C4=O)c(OC)c1OC	0.107 µM	0.257 µM	0.0983 µM	0.213 µM	1.01 µM	3.01 µM	0.337 µM	1.1 µM	0.244 µM	0.952 µM	0.262 µM	0.503 µM	0.0773 µM	0.169 µM	0.0914 µM	0.242 µM	0.0792 µM	0.168 µM	0.0957 µM	0.187 µM
CCCS(=O)(=O)Nc1cccc(Nc2ncnc3cc(NC(=O)CCl)ccc23)c1Cl	3.44 µM	7.23 µM	3.34 µM	9.99 µM	6.95 µM	25 µM	3.31 µM	11.9 µM	1.6 µM	6.95 µM	2.42 µM	6.69 µM	0.968 µM	4.03 µM	3.71 µM	14.1 µM	3.06 µM	7.13 µM	5.09 µM	10.6 µM
CCN(CC)CCn1c(=O)c2cc(OC)c(OC)cc2c2ccc3cc4c(cc3c21)OCO4	0.266 µM	12 µM	0.26 µM	26.4 µM	0.42 µM	43.9 µM	0.446 µM	> 50.6 µM	1.61 µM	10.3 µM	0.456 µM	17.2 µM	0.377 µM	6.2 µM	0.922 µM	48.9 µM	0.734 µM	23.9 µM	2.57 µM	25.7 µM
COc1c(C)c(OC)c(C(=O)CC(C)C)c(OC)c1C		> 100 µM		> 100 µM		> 100 µM		> 100 µM		> 100 µM		> 100 µM		> 100 µM		> 100 µM		> 100 µM		> 100 µM
COc1ccc(C2CC(c3ccc(OC)cc3O)=NN2c2ccc(S(N)(=O)=O)cc2)cc1 (centres undefined)	5.86 µM	> 100 µM	4.42 µM	85.6 µM	8.09 µM	> 100 µM	11.7 µM	> 100 µM	5.98 µM	> 100 µM	13.5 µM	57.2 µM	4.47 µM	69.3 µM	24.1 µM	> 100 µM	5.14 µM	> 100 µM	16.5 µM	> 100 µM
C=CCOc1ccc(N)c([N+](=O)[O-])c1		> 100 µM		> 100 µM		> 100 µM		> 100 µM		> 100 µM		> 100 µM		> 100 µM		> 100 µM		> 100 µM		> 100 µM
O=c1cc(-c2ccccc2)oc2c1ccc1ccccc12	17.6 µM	90 µM	23.9 µM	> 100 µM	30.5 µM	> 100 µM	18.9 µM	59.5 µM	30 µM	> 100 µM	21 µM	55.8 µM	20.3 µM	> 100 µM	26 µM	> 100 µM	24.9 µM	89.2 µM	56.7 µM	> 100 µM
CCCCC(OC(=O)c1ccc(N)cc1)C(=O)Nc1nc(CC(=O)OCC)cs1 (centres undefined)	38.8 µM	> 100 µM	38.7 µM	> 100 µM	33.9 µM	> 100 µM	43.5 µM	> 100 µM	40.2 µM	> 100 µM	34.5 µM	> 100 µM	37.3 µM	> 100 µM	40.4 µM	> 100 µM	41.4 µM	> 100 µM	67.5 µM	> 100 µM
CC1(C)N=c2cc3c(cc2N1c1ccc(Cl)cc1)=Nc1ccccc1N3c1ccc(Cl)cc1	3.53 µM	> 100 µM	3.91 µM	> 100 µM	5.21 µM	> 100 µM	4.95 µM	> 100 µM	4.26 µM	> 100 µM	3.5 µM	60.8 µM	3.68 µM	> 100 µM	4.01 µM	51.9 µM	6.84 µM	> 100 µM	17.8 µM	> 100 µM
NNc1nc2ccccc2o1		> 100 µM		> 100 µM		> 100 µM		> 100 µM		> 100 µM		> 100 µM		> 100 µM		> 100 µM		> 100 µM		> 100 µM
O=C1/C(=C/c2ccc(F)cc2)CN(C(=O)C(Cl)Cl)C/C1=C\c1ccc(F)cc1	0.24 µM	0.603 µM	0.702 µM	3.6 µM	0.327 µM	1.71 µM	4.22 µM	22.5 µM	0.145 µM	0.682 µM	0.253 µM	0.81 µM	0.0673 µM	0.215 µM	0.295 µM	1.64 µM	0.107 µM	0.336 µM	0.178 µM	0.351 µM
CC(=O)Nc1ccc(OC(C)=O)cc1	< 0.01 µM	76 µM	5.74 µM	> 100 µM	< 0.0105 µM	> 7.41 µM	< 0.01 µM		< 0.01 µM	16.6 µM	< 0.01 µM	0.165 µM	< 0.01 µM	0.204 µM	< 0.01 µM	> 49.1 µM	< 0.01 µM	12.1 µM	< 0.0117 µM	0.327 µM
